The source of these data is patent US7915238B2, “Immunomodulatory compounds and methods of use thereof” (Eisai R & D Management Co., Ltd., priority 1999, dated 2011).

Where two headings read alike, the source gives them in different places. A value given as a limit tells only on which side of the number the result lay.

This assay has as its system Human Whole Blood. In words: Cytokine release in human whole blood (ELISA). It is filed as cell-based. As to conditions: for TNF-alpha release in whole blood at 10 μM compound (% of 10 ng/ml LPS response): compounds tested at 10 μM, compared to 10 ng/ml LPS, 3-hour incubation; for EC50: whole blood, vs. % of LPS at 10 ng/ml, read-out: WB ED50 vs LPS@ 10 ng/ml; for TNF-alpha release from blood-borne cells: FIG. 1. How it is done:
The most readily available human system to test compound activity on monocytes/macrophages is in whole blood. Various concentrations of compounds of the invention were added as 10× stocks in 50 μl of Ca^++, Mg^++-free Hank's balanced salt solution (HBSS) followed by 50 μl of HBSS into 400 μl of heparinized whole blood obtained from normal volunteers (18-51 years old; 110-230 lb.) into the wells of plastic assay plates, for a total volume of 500 μl/well (final concentration of whole blood was 80%). After a 3-hour incubation with gentle shaking at 37° C. in a 5% CO2 atmosphere, the assay plates were centrifuged at 1000×g for 10 min. at 4° C. and plasma was drawn off and frozen at −80° C. Plasma samples were analyzed for TNF-alpha, IL-10, and IL-12 by ELISA (Genzyme Corp., Cambridge, Mass.). Each assay point was tested in triplicate.
This stimulatory activity can be compared to that of 10 ng/ml endotoxin (or LPS) present in similar incubations in the same assay.

`CCCCCC/C=C\CCCC(=O)O[C@H](CCCCCCC)CCOCC(COP(=O)([O-])OCCNC(=O)C(Cc1ccc(OCCNC(=O)OC(C)(C)C)cc1)C(=O)NCCOP(=O)([O-])OCC(COCC[C@@H](CCCCCCC)OC(=O)CCC/C=C\CCCCCC)NC(=O)CC(=O)CCCCCCCCCCC)NC(=O)CC(=O)CCCCCCCCCCC.[Na+].[Na+]` (stereo partly drawn) [compound 019772]: the “TNF-alpha release in whole blood at 10 μM compound (% of 10 ng/ml LPS response)” value (from here on “TNF-alpha release … (% of 10 ng/ml LPS response)”) was 69 % of LPS.
Still for that read-out and setting: to `CCCCCC/C=C\CCCC(=O)O[C@H](CCCCCCC)CCOCC(COP(=O)(O)OCCNC(=O)C(Cc1ccc(OCCNC(=O)CCCCC(=O)O)cc1)C(=O)NCCOP(=O)(O)OCC(COCC[C@@H](CCCCCCC)OC(=O)CCC/C=C\CCCCCC)NC(=O)CCCCCCCCCCCCC)NC(=O)CCCCCCCCCCCCC` (stereo partly drawn) [compound 803045] belongs 65 % of LPS; to `CCCCCC/C=C\CCCC(=O)O[C@H](CCCCCCC)CCOCC(COP(=O)([O-])OCCNC(=O)C(CCCCNC(=O)OC(C)(C)C)C(=O)NCCOP(=O)([O-])OCC(COCC[C@@H](CCCCCCC)OC(=O)CCC/C=C\CCCCCC)NC(=O)CCCCCCCCCCCCC)NC(=O)CCCCCCCCCCCCC.[Na+].[Na+]` (stereo partly drawn) [compound 119521], 103 % of LPS.
In the case of `CCCCCCCCCCCCCC(=O)N[C@H](COCC[C@H](CCCCCCC)CCCCCCCCCCCC)COP(=O)(O)OCCNC(=O)NCCOP(=O)(O)OC[C@@H](COCC[C@H](CCCCCCC)CCCCCCCCCCCC)NC(=O)CCCCCCCCCCCCC` [compound 804121], the EC50 amounted to 460 nM.
With `CCCCCC/C=C\CCCC(=O)O[C@H](CCCCCCC)CCOCC(COP(=O)([O-])OCCNC(=O)NCCOP(=O)([O-])OCC(COCC[C@@H](CCCCCCC)OC(=O)CCC/C=C\CCCCCC)NC(=O)CCCCCCCCCCCCC)NC(=O)CCCCCCCCCCCCC.[Na+].[Na+]` (stereo partly drawn) [ER 119328], the “TNF-alpha release from blood-borne cells” value is “stimulate blood-borne cells to release TNF-alpha”.
Regarding `CCCCCC/C=C\CCCC(=O)O[C@H](CCCCCCC)CCOCC(COP(=O)([O-])OCCNC(=O)C(Cc1ccc(OCCN)cc1)C(=O)NCCOP(=O)([O-])OCC(COCC[C@@H](CCCCCCC)OC(=O)CCC/C=C\CCCCCC)NC(=O)CCCCCCCCCCCCC)NC(=O)CCCCCCCCCCCCC.[Na+].[Na+]` (stereo partly drawn) [compound 119522], the “TNF-alpha release … (% of 10 ng/ml LPS response)” value is on record as 129 % of LPS.
Turning to `CCCCCCCCCCCCCCN(C(C)=O)[C@H](COCC[C@@H](CCCCCCC)OC(=O)CCCCCCCCCCC)COP(=O)(O)OCCNC(=O)NCCOP(=O)(O)OC[C@@H](COCC[C@@H](CCCCCCC)OC(=O)CCCCCCCCCCC)N(CCCCCCCCCCCCCC)C(C)=O` [compound 804339], the EC50 was 1060 nM.
Consider `CCCCCCCCCCCCCC(=O)N[C@H](COCC[C@@H](CCCCCCC)OC(=O)CCCCCCCCCCC)COP(=O)(O)OCCNC(=O)NCCOP(=O)(O)OC[C@H](COCC[C@@H](CCCCCCC)OC(=O)CCCCCCCCCCC)NC(=O)CCCCCCCCCCCCC` [compound 803789], for which the EC50 is 100 nM.
Take `CCCCCCCCCCCCCC(=O)N[C@H](COCC[C@@H](CCCCCCC)OC(=O)CCCCCCCCCCC)COP(=O)(O)OCCNC(=O)CC(=O)NCCOP(=O)(O)OC[C@H](COCC[C@@H](CCCCCCC)OC(=O)CCCCCCCCCCC)NC(=O)CCCCCCCCCCCCC` [compound 803733]: the EC50 amounted to 700 nM.
In the case of `CCCCCCCCCCCCCC(=O)NC(COCC[C@@H](CCCCCCC)OC(=O)CCCCCCCCCCC)COP(=O)([O-])OCCNC(=O)CC(=O)NCCOP(=O)([O-])OCC(COCC[C@@H](CCCCCCC)OC(=O)CCCCCCCCCCC)NC(=O)CCCCCCCCCCCCC.[Na+].[Na+]` (stereo partly drawn) [compound 803056], the “TNF-alpha release … (% of 10 ng/ml LPS response)” value is reported as 151 ± 42 % of LPS.
On the same count and under the same terms, as for `CCCCCCCCCCCCCC(=O)O[C@@H](COCC[C@@H](CCCCCCC)OC(=O)CCCCCCCCCCC)COP(=O)([O-])OCCNC(=O)NCCOP(=O)([O-])OC[C@H](COCC[C@@H](CCCCCCC)OC(=O)CCCCCCCCCCC)OC(=O)CCCCCCCCCCCCC.[Na+].[Na+]` [compound 803592], the figure is 15 % of LPS.
`CCCCCCCCCCCC(=O)CC(=O)N[C@H](COCC[C@@H](CCCCCCC)OC(=O)CCCCCCCCCCC)COP(=O)(O)OCCNC(=O)NCCOP(=O)(O)OC[C@H](COCC[C@@H](CCCCCCC)OC(=O)CCCCCCCCCCC)NC(=O)CC(=O)CCCCCCCCCCC` [compound 804097]: the EC50 stood at 300 nM.
`CCCCCC/C=C\CCCC(=O)O[C@H](CCCCCCC)CCOCC(COP(=O)([O-])OCCNC(=O)NCCOP(=O)([O-])OCC(COCC[C@@H](CCCCCCC)OC(=O)CCC/C=C\CCCCCC)NC(=O)C[C@@H](CCCCCCC)OC(=O)CCC/C=C\CCCCCC)NC(=O)C[C@@H](CCCCCCC)OC(=O)CCC/C=C\CCCCCC.[Na+].[Na+]` (stereo partly drawn) [compound 112093]: the “TNF-alpha release … (% of 10 ng/ml LPS response)” value was 0 % of LPS.
On to `CCCCCC/C=C\CCCC(=O)O[C@H](CCCCCCC)CCOCC(COP(=O)([O-])OCCNC(=O)CC(=O)NCCOP(=O)([O-])OCC(COCC[C@@H](CCCCCCC)OC(=O)CCC/C=C\CCCCCC)NC(=O)C[C@H](O)CCCCCCCCCCC)NC(=O)C[C@H](O)CCCCCCCCCCC.[Na+].[Na+]` (stereo partly drawn) [compound 119001], for which the “TNF-alpha release … (% of 10 ng/ml LPS response)” value is listed as 113 % of LPS and the EC50 came out at 1230 nM.
As to `CCCCCC/C=C\CCCC(=O)O[C@H](CCCCCCC)CC(=O)NC(COCC[C@H](O)CCCCCCC)COP(=O)([O-])OCCNC(=O)c1ccccc1C(=O)NCCOP(=O)([O-])OCC(COCC[C@H](O)CCCCCCC)NC(=O)C[C@@H](CCCCCCC)OC(=O)CCC/C=C\CCCCCC.[Na+].[Na+]` (stereo partly drawn) [compound 112859], the “TNF-alpha release … (% of 10 ng/ml LPS response)” value is given as 0 % of LPS.
On the same count and under the same terms, as for `CCCCCC/C=C\CCCC(=O)O[C@H](CCCCCCC)CCOCC(COP(=O)([O-])OCCNC(=O)C(CCCCN)C(=O)NCCOP(=O)([O-])OCC(COCC[C@@H](CCCCCCC)OC(=O)CCC/C=C\CCCCCC)NC(=O)CCCCCCCCCCCCC)NC(=O)CCCCCCCCCCCCC.[Na+].[Na+]` (stereo partly drawn) [compound 119523], the figure is 176 % of LPS.
Take `CCCCCCCCCCCCCC(=O)N[C@@H](CC[N+](C)(C)CCCNC(=O)NCCC[N+](C)(C)CC[C@@H](COC(=O)C[C@@H](CCCCCCC)OC(=O)CCCCCCCCCCC)NC(=O)CCCCCCCCCCCCC)COC(=O)C[C@@H](CCCCCCC)OC(=O)CCCCCCCCCCC` [compound 804947]: the EC50 (Homo sapiens) is over 10000 nM.
As to `CCCCCC/C=C\CCCC(=O)O[C@H](CCCCCCC)CCOCC(COP(=O)([O-])OCCNC(=O)CC(=O)NCCOP(=O)([O-])OCC(COCC[C@@H](CCCCCCC)OC(=O)CCC/C=C\CCCCCC)NC(=O)CCCCCCCCCCCCCCC)NC(=O)CCCCCCCCCCCCCCC.[Na+].[Na+]` (stereo partly drawn) [compound 119000], the “TNF-alpha release … (% of 10 ng/ml LPS response)” value is 60 % of LPS.
Take `CCCCCCCCCCCCCC(=O)N[C@H](COCC[C@H](CCCCCCC)NC(=O)CCCCCCCCCCC)COP(=O)(O)OCCNC(=O)NCCOP(=O)(O)OC[C@@H](COCC[C@H](CCCCCCC)NC(=O)CCCCCCCCCCC)NC(=O)CCCCCCCCCCCCC` [compound 804253]: the EC50 was over 10000 nM.
As for `CCCCCC/C=C\CCCC(=O)O[C@H](CCCCCCC)CCOC[C@@H](COP(=O)(O)OCCNC(=O)CC(=O)NCCOP(=O)(O)OC[C@H](COCC[C@@H](CCCCCCC)OC(=O)CCC/C=C\CCCCCC)NC(=O)CC(=O)CCCCCCCCCCC)NC(=O)CC(=O)CCCCCCCCCCC` [compound 804061], the EC50 turned out to be 2500 nM.
On to `CCCCCCCCCCCCCC(=O)NC(COCC[C@@H](CCCCCCC)OC(=O)CCCCCCCCCCC)COP(=O)([O-])OCCNC(=O)NCCOP(=O)([O-])OCC(COCC[C@@H](CCCCCCC)OC(=O)CCCCCCCCCCC)NC(=O)CCCCCCCCCCCCC.[Na+].[Na+]` (stereo partly drawn) [ER 119327], for which the “TNF-alpha release from blood-borne cells” value was “stimulate blood-borne cells to release TNF-alpha”.
For `CCCCCCCCCCCCCC(=O)N[C@H](COCC[C@H](CCCCCCC)CCCCCCCCCCCC)COP(=O)(O)OCCNC(=O)NCCOP(=O)(O)OC[C@@H](COCC[C@H](CCCCCCC)CCCCCCCCCCCC)NC(=O)CCCCCCCCCCCCC` [compound 804130], the EC50 stood at 660 nM.
On the same count and under the same terms, as for `CCCCCCCCCCCCCC(=O)N[C@H](COCC[C@@H](CCCCCCC)OC(=O)CCCCCCCCCCC)COP(=O)(O)OCCNC(=O)CC(=O)NCCOP(=O)(O)OC[C@H](COCC[C@@H](CCCCCCC)OC(=O)CCCCCCCCCCC)NC(=O)CCCCCCCCCCCCC` [compound 803731], the figure is over 10000 nM.
The same measure, in the same setting: to `CCCCCCCCCCCCC(O)C(=O)N[C@H](COCC[C@@H](CCCCCCC)OC(=O)CCCCCCCCCCC)COP(=O)(O)OCCNC(=O)NCCOP(=O)(O)OC[C@@H](COCC[C@@H](CCCCCCC)OC(=O)CCCCCCCCCCC)NC(=O)C(O)CCCCCCCCCCCC` (stereo partly drawn) [compound 804313] belongs 14 nM.
Turning to `CCCCCCCCCCCCCCCC(=O)OCC(COP(=O)(O)OCC(O)COP(=O)(O)OCC(COC(=O)CCCCCCCCCCCCCCC)OC(=O)CCCCCCCCCCCCCCC)OC(=O)CCCCCCCCCCCCCCC` (stereo not drawn) [compound 112071], the “TNF-alpha release … (% of 10 ng/ml LPS response)” value was 0 % of LPS.
As to `CCCCCCCCCCCCCC(=O)N[C@H](COCC[C@@H](CCCCCCC)OC(=O)CCCCCCCCCCC)COP(=O)(O)OCCNC(=O)NCCOP(=O)(O)OC[C@@H](COCC[C@@H](CCCCCCC)OC(=O)CCCCCCCCCCC)NC(=O)CCCCCCCCCCCCC` [ER 804678], the EC50 stood at 18 nM.
